Laboratory results as given in ChEMBL document CHEMBL1201862, “PubChem BioAssay data set” (2004).
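Test compounds were applied to cells in 96-well plates for 48 hours at 5 doses. Here, GI50 denotes the concentration required for 50% inhibition of growth.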 Activity calls are given as the source filed them. Rule as the data show it: active = GI50 up to about 1.1 µM and inactive = higher.

What was measured:
Assay in all cases: NCI tumour cell line growth inhibition, 48 h
[1] = tested on: 786-0
[2] = tested on: A498
[3] = tested on: A549
[4] = tested on: ACHN
[5] = tested on: CAKI-1
[6] = tested on: CCRF-CEM
[7] = tested on: COLO 205
[8] = tested on: DLD-1
[9] = tested on: DMS-114
[10] = tested on: DMS-273
[11] = tested on: EKVX
[12] = tested on: HCC 2998
[13] = tested on: HCT-116
[14] = tested on: HCT-15
[15] = tested on: HOP-18
[16] = tested on: HOP-62
[17] = tested on: HOP-92
[18] = tested on: HT-29
[19] = tested on: IGROV-1
[20] = tested on: K562
[21] = tested on: KM-20L2
[22] = tested on: KM12
[23] = tested on: LOX IMVI
[24] = tested on: M14
[25] = tested on: M19-MEL
[26] = tested on: Malme-3M
[27] = tested on: NCI-H226
[28] = tested on: NCI-H23
[29] = tested on: NCI-H460
[30] = tested on: OVCAR-3
[31] = tested on: OVCAR-4
[32] = tested on: OVCAR-5
[33] = tested on: OVCAR-8
[34] = tested on: RPMI-8226
[35] = tested on: RXF 631
[36] = tested on: SF-268
[37] = tested on: SF-295
[38] = tested on: SF-539
[39] = tested on: SK-MEL-28
[40] = tested on: SK-MEL-2
[41] = tested on: SK-MEL-5
[42] = tested on: SK-OV-3
[43] = tested on: SN12C
[44] = tested on: SNB-19
[45] = tested on: SNB-75
[46] = tested on: SNB-78
[47] = tested on: SW-620
[48] = tested on: TK-10
[49] = tested on: U-251
[50] = tested on: UACC-257
[51] = tested on: UACC-62
[52] = tested on: UO-31
[53] = tested on: XF498
[54] = tested on: BT-549
[55] = tested on: DU-145
[56] = tested on: HL-60
[57] = tested on: Hs-578T
[58] = tested on: LXFL 529
[59] = tested on: MCF7
[60] = tested on: MDA-MB-231
[61] = tested on: MDA-N
[62] = tested on: MOLT-4
[63] = tested on: NCI-H522
[64] = tested on: PC-3
[65] = tested on: RXF 393
[66] = tested on: SR
[67] = tested on: T47D

For Cc1ccccc1CN1CC=c2ccccc2=N1, the GI50 [1] was > 100 µM (inactive), the GI50 [2] was > 100 µM (inactive) and the GI50 [3] was 93.5 µM (inactive). For the same compound, the GI50 [4] was > 100 µM (inactive), the GI50 [5] was > 100 µM (inactive) and the GI50 [6] was > 100 µM (inactive). The GI50 [7] was > 100 µM (inactive), the GI50 [8] was > 100 µM (inactive) and the GI50 [9] was > 100 µM (inactive). For the same compound, the GI50 [10] was > 100 µM (inactive), the GI50 [11] was 93.5 µM (inactive) and the GI50 [12] was > 100 µM (inactive). The GI50 [13] was > 10 µM (inactive), the GI50 [14] was greater than 100 µM and the GI50 [15] was > 100 µM (inactive). For the same compound, the GI50 [16] was > 100 µM (inactive), the GI50 [17] was > 100 µM (inactive) and the GI50 [18] was > 100 µM (inactive). For the same compound, the GI50 [19] was > 100 µM (inactive), the GI50 [20] was > 100 µM (inactive) and the GI50 [21] was > 100 µM (inactive). For the same compound, the GI50 [22] was > 100 µM (inactive), the GI50 [23] was > 100 µM (inactive) and the GI50 [24] was > 100 µM (inactive). For the same compound, the GI50 [25] was > 100 µM (inactive), the GI50 [26] was > 100 µM (inactive) and the GI50 [27] was > 100 µM (inactive). For the same compound, the GI50 [28] was > 100 µM (inactive), the GI50 [29] was > 100 µM (inactive) and the GI50 [30] was > 100 µM (inactive). The GI50 [31] was > 100 µM (inactive), the GI50 [32] was > 100 µM (inactive) and the GI50 [33] was > 100 µM (inactive). The GI50 [34] was > 100 µM (inactive), the GI50 [35] was > 100 µM (inactive) and the GI50 [36] was > 100 µM (inactive). For the same compound, the GI50 [37] was > 100 µM (inactive), the GI50 [38] was > 100 µM (inactive) and the GI50 [39] was > 100 µM (inactive). For the same compound, the GI50 [40] was > 100 µM (inactive), the GI50 [41] was 97.9 µM (inactive) and the GI50 [42] was > 100 µM (inactive). The GI50 [43] was > 100 µM (inactive), the GI50 [44] was > 100 µM (inactive) and the GI50 [45] was 50.9 µM (inactive). For the same compound, the GI50 [46] was > 100 µM (inactive), the GI50 [47] was > 100 µM (inactive) and the GI50 [48] was > 100 µM (inactive). The GI50 [49] was > 100 µM (inactive), the GI50 [50] was > 100 µM (inactive) and the GI50 [51] was > 100 µM (inactive). For the same compound, the GI50 [52] was 50.1 µM (inactive) and the GI50 [53] was 68.1 µM (inactive).

For Oc1cc(-c2ccccc2)nc2cc3c(cc12)OCO3, the GI50 [1] was 9.95 µM (inactive), the GI50 [2] was 15.1 µM (inactive) and the GI50 [3] was 14 µM (inactive). For the same compound, the GI50 [4] was 15.2 µM (inactive), the GI50 [54] was 40.8 µM (inactive) and the GI50 [6] was 12.2 µM (inactive). For the same compound, the GI50 [7] was 6.21 µM (inactive), the GI50 [8] was 6.56 µM (inactive) and the GI50 [10] was 11.7 µM (inactive). For the same compound, the GI50 [55] was 79.4 µM (inactive), the GI50 [11] was 15.6 µM (inactive) and the GI50 [12] was 15.6 µM (inactive). The GI50 [13] was 8 µM (inactive), the GI50 [14] was 18.8 µM and the GI50 [56] was 4.11 µM (inactive). For the same compound, the GI50 [15] was > 100 µM (inactive), the GI50 [16] was 9.55 µM (inactive) and the GI50 [17] was 3.98 µM (inactive). The GI50 [18] was 7.18 µM (inactive), the GI50 [57] was 24.5 µM (inactive) and the GI50 [19] was 13.6 µM (inactive). The GI50 [20] was 4.06 µM (inactive), the GI50 [21] was 7.35 µM (inactive) and the GI50 [22] was 1.54 µM (inactive). For the same compound, the GI50 [23] was 11.6 µM (inactive), the GI50 [58] was 1.82 µM (inactive) and the GI50 [24] was 7.36 µM (inactive). The GI50 [25] was 3.21 µM (inactive), the GI50 [59] was 36.8 µM (inactive) and the GI50 [60] was 85.5 µM (inactive). The GI50 [61] was 4.11 µM (inactive), the GI50 [62] was 15.1 µM (inactive) and the GI50 [26] was 3.76 µM (inactive). The GI50 [27] was 11.8 µM (inactive), the GI50 [28] was 8.55 µM (inactive) and the GI50 [29] was 7.87 µM (inactive). The GI50 [63] was 3.93 µM (inactive), the GI50 [30] was 10 µM (inactive) and the GI50 [31] was > 97.3 µM (inactive). The GI50 [32] was > 84.3 µM (inactive), the GI50 [33] was 14.5 µM (inactive) and the GI50 [64] was 30.2 µM (inactive). The GI50 [34] was 11 µM (inactive), the GI50 [65] was 5.69 µM (inactive) and the GI50 [35] was 2.9 µM (inactive). For the same compound, the GI50 [36] was 3.83 µM (inactive), the GI50 [37] was 8.57 µM (inactive) and the GI50 [38] was 6.05 µM (inactive). For the same compound, the GI50 [39] was 6.75 µM (inactive), the GI50 [40] was 19.5 µM (inactive) and the GI50 [41] was 3.52 µM (inactive). The GI50 [42] was 6.92 µM (inactive), the GI50 [43] was 12.8 µM (inactive) and the GI50 [44] was 20 µM (inactive). For the same compound, the GI50 [45] was 2.6 µM (inactive), the GI50 [46] was 3.72 µM (inactive) and the GI50 [66] was 3.36 µM (inactive). The GI50 [47] was 6.15 µM (inactive), the GI50 [67] was 42.1 µM (inactive) and the GI50 [48] was 39 µM (inactive). The GI50 [49] was 29.2 µM (inactive), the GI50 [50] was 44.5 µM (inactive) and the GI50 [51] was 5.52 µM (inactive). The GI50 [52] was 13.1 µM (inactive) and the GI50 [53] was 26.9 µM (inactive).

In the case of O=[N+]([O-])c1ccc(-c2ccc(C3=Nn4c(nnc4-c4ccc(Cl)cc4)SC3)o2)cc1, the GI50 [1] is reported as 31.4 µM (inactive), the GI50 [2] is reported as 92.7 µM (inactive) and the GI50 [3] is reported as 47.1 µM (inactive). The GI50 [4] was 46.6 µM (inactive), the GI50 [5] was > 100 µM (inactive) and the GI50 [6] was > 100 µM (inactive). For the same compound, the GI50 [7] was > 100 µM (inactive), the GI50 [8] was > 91.4 µM (inactive) and the GI50 [9] was > 100 µM (inactive). For the same compound, the GI50 [10] was 67.9 µM (inactive), the GI50 [11] was > 100 µM (inactive) and the GI50 [12] was > 100 µM (inactive). The GI50 [13] was 45 µM (inactive), the GI50 [14] was greater than 92.5 µM and the GI50 [56] was > 59 µM (inactive). The GI50 [15] was > 100 µM (inactive), the GI50 [16] was 31 µM (inactive) and the GI50 [17] was 38.5 µM (inactive). The GI50 [18] was > 100 µM (inactive), the GI50 [19] was 56 µM (inactive) and the GI50 [20] was > 100 µM (inactive). The GI50 [21] was > 100 µM (inactive), the GI50 [22] was > 100 µM (inactive) and the GI50 [23] was > 100 µM (inactive). The GI50 [58] was > 100 µM (inactive), the GI50 [24] was > 100 µM (inactive) and the GI50 [25] was > 100 µM (inactive). For the same compound, the GI50 [62] was > 100 µM (inactive), the GI50 [26] was > 52.5 µM (inactive) and the GI50 [27] was > 100 µM (inactive). The GI50 [28] was > 53.2 µM (inactive), the GI50 [29] was > 73.3 µM (inactive) and the GI50 [63] was > 89.3 µM (inactive). The GI50 [30] was 94.8 µM (inactive), the GI50 [31] was > 100 µM (inactive) and the GI50 [32] was > 100 µM (inactive). For the same compound, the GI50 [33] was > 92 µM (inactive), the GI50 [34] was > 100 µM (inactive) and the GI50 [35] was > 53.3 µM (inactive). For the same compound, the GI50 [36] was > 100 µM (inactive), the GI50 [37] was 26.5 µM (inactive) and the GI50 [38] was > 100 µM (inactive). For the same compound, the GI50 [39] was > 100 µM (inactive), the GI50 [40] was 99.3 µM (inactive) and the GI50 [41] was > 100 µM (inactive). For the same compound, the GI50 [42] was > 82.4 µM (inactive), the GI50 [43] was 97.9 µM (inactive) and the GI50 [44] was 30.3 µM (inactive). For the same compound, the GI50 [45] was 25.4 µM (inactive), the GI50 [66] was > 100 µM (inactive) and the GI50 [47] was > 100 µM (inactive). The GI50 [48] was 23.4 µM (inactive), the GI50 [49] was 37.1 µM (inactive) and the GI50 [50] was > 100 µM (inactive). For the same compound, the GI50 [51] was > 100 µM (inactive), the GI50 [52] was > 100 µM (inactive) and the GI50 [53] was 24.9 µM (inactive).
